According to PubChem BioAssay (NCI):
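Abbreviation: GI50, concentration required for 50% inhibition of growth. The concentration for full growth arrest is given as TGI.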

Experiments:
Assay in all cases: NCI anticancer screen, dose series, 384-well format
786-0 renal = system: 786-0 renal
A498 renal = system: A498 renal
A549 NSCLC = system: A549 NSCLC
BT-549 breast = system: BT-549 breast
CAKI-1 renal = system: CAKI-1 renal
CCRF-CEM leukemia = system: CCRF-CEM leukemia
COLO 205 colon = system: COLO 205 colon
DU-145 prostate = system: DU-145 prostate
EKVX NSCLC = system: EKVX NSCLC
HCC-2998 colon = system: HCC-2998 colon
HL-60(TB) leukemia = system: HL-60(TB) leukemia
HOP-92 NSCLC = system: HOP-92 NSCLC
HS 578T breast = system: HS 578T breast
HT29 colon = system: HT29 colon
IGROV1 ovarian = system: IGROV1 ovarian
LOX IMVI melanoma = system: LOX IMVI melanoma
M14 melanoma = system: M14 melanoma
MALME-3M melanoma = system: MALME-3M melanoma
MCF7 breast = system: MCF7 breast
MDA-MB-231 breast = system: MDA-MB-231 breast
MDA-MB-435 melanoma = system: MDA-MB-435 melanoma
MDA-MB-468 breast = system: MDA-MB-468 breast
MOLT-4 leukemia = system: MOLT-4 leukemia
NCI-H226 lung = system: NCI-H226 lung
NCI-H23 lung = system: NCI-H23 lung
NCI-H322M lung = system: NCI-H322M lung
NCI-H522 lung = system: NCI-H522 lung
OVCAR-3 ovarian = system: OVCAR-3 ovarian
OVCAR-5 ovarian = system: OVCAR-5 ovarian
PC-3 prostate = system: PC-3 prostate
RPMI-8226 leukemia = system: RPMI-8226 leukemia
RXF 393 renal = system: RXF 393 renal
SF-268 CNS = system: SF-268 CNS
SF-295 CNS = system: SF-295 CNS
SF-539 CNS = system: SF-539 CNS
SK-MEL-2 melanoma = system: SK-MEL-2 melanoma
SK-MEL-28 melanoma = system: SK-MEL-28 melanoma
SK-MEL-5 melanoma = system: SK-MEL-5 melanoma
SK-OV-3 ovarian = system: SK-OV-3 ovarian
SN12C renal = system: SN12C renal
SNB-19 CNS = system: SNB-19 CNS
SNB-75 CNS = system: SNB-75 CNS
SR leukemia = system: SR leukemia
SW-620 colon = system: SW-620 colon
TK-10 renal = system: TK-10 renal
U251 glioblastoma = system: U251 glioblastoma
UO-31 renal = system: UO-31 renal

SMILES: C[C@@H](Oc1cc(NS(=O)(=O)N2CCC2)nc(SCc2cccc(F)c2F)n1)[C@@H](O)CO
- GI50 (786-0 renal): > 100 µM
- TGI (786-0 renal): > 100 µM
- GI50 (A498 renal): > 79 µM
- TGI (A498 renal): > 100 µM
- GI50 (A549 NSCLC): > 100 µM
- TGI (A549 NSCLC): > 100 µM
- GI50 (BT-549 breast): > 71.9 µM
- TGI (BT-549 breast): > 100 µM
- GI50 (CAKI-1 renal): > 60.8 µM
- TGI (CAKI-1 renal): > 100 µM
- GI50 (CCRF-CEM leukemia): > 63.3 µM
- TGI (CCRF-CEM leukemia): > 100 µM
- GI50 (COLO 205 colon): > 89.8 µM
- TGI (COLO 205 colon): > 100 µM
- GI50 (DU-145 prostate): > 100 µM
- TGI (DU-145 prostate): > 100 µM
- GI50 (EKVX NSCLC): > 100 µM
- TGI (EKVX NSCLC): > 100 µM
- GI50 (HCC-2998 colon): > 77.4 µM
- TGI (HCC-2998 colon): > 100 µM
- GI50 (HL-60(TB) leukemia): > 36 µM
- TGI (HL-60(TB) leukemia): > 51.2 µM
- GI50 (HOP-92 NSCLC): > 88.1 µM
- TGI (HOP-92 NSCLC): > 100 µM
- GI50 (HS 578T breast): 57.7 µM
- TGI (HS 578T breast): > 100 µM
- GI50 (HT29 colon): > 100 µM
- TGI (HT29 colon): > 100 µM
- GI50 (IGROV1 ovarian): > 100 µM
- TGI (IGROV1 ovarian): > 100 µM
- GI50 (LOX IMVI melanoma): 42.1 µM
- TGI (LOX IMVI melanoma): > 100 µM
- GI50 (M14 melanoma): > 95.7 µM
- TGI (M14 melanoma): > 100 µM
- GI50 (MALME-3M melanoma): > 82.1 µM
- TGI (MALME-3M melanoma): > 100 µM
- GI50 (MCF7 breast): > 52.1 µM
- TGI (MCF7 breast): > 100 µM
- GI50 (MDA-MB-231 breast): > 75.9 µM
- TGI (MDA-MB-231 breast): > 100 µM
- GI50 (MDA-MB-435 melanoma): > 100 µM
- TGI (MDA-MB-435 melanoma): > 100 µM
- GI50 (MDA-MB-468 breast): > 78.2 µM
- TGI (MDA-MB-468 breast): > 100 µM
- GI50 (MOLT-4 leukemia): > 61.8 µM
- TGI (MOLT-4 leukemia): > 100 µM
- GI50 (NCI-H226 lung): > 89.3 µM
- TGI (NCI-H226 lung): > 100 µM
- GI50 (NCI-H23 lung): 99.2 µM
- TGI (NCI-H23 lung): > 100 µM
- GI50 (NCI-H322M lung): > 100 µM
- TGI (NCI-H322M lung): > 100 µM
- GI50 (NCI-H522 lung): > 43.5 µM
- TGI (NCI-H522 lung): > 100 µM
- GI50 (OVCAR-3 ovarian): > 73.9 µM
- TGI (OVCAR-3 ovarian): > 100 µM
- GI50 (OVCAR-5 ovarian): > 100 µM
- TGI (OVCAR-5 ovarian): > 100 µM
- GI50 (PC-3 prostate): > 76.7 µM
- TGI (PC-3 prostate): > 100 µM
- GI50 (RPMI-8226 leukemia): 20 µM
- TGI (RPMI-8226 leukemia): > 60 µM
- GI50 (RXF 393 renal): > 81.5 µM
- TGI (RXF 393 renal): > 100 µM
- GI50 (SF-268 CNS): > 100 µM
- TGI (SF-268 CNS): > 100 µM
- GI50 (SF-295 CNS): > 100 µM
- TGI (SF-295 CNS): > 100 µM
- GI50 (SF-539 CNS): > 100 µM
- TGI (SF-539 CNS): > 100 µM
- GI50 (SK-MEL-2 melanoma): > 79.6 µM
- TGI (SK-MEL-2 melanoma): > 100 µM
- GI50 (SK-MEL-28 melanoma): > 100 µM
- TGI (SK-MEL-28 melanoma): > 100 µM
- GI50 (SK-MEL-5 melanoma): > 59.4 µM
- TGI (SK-MEL-5 melanoma): > 100 µM
- GI50 (SK-OV-3 ovarian): > 83.6 µM
- TGI (SK-OV-3 ovarian): > 100 µM
- GI50 (SN12C renal): > 100 µM
- TGI (SN12C renal): > 100 µM
- GI50 (SNB-19 CNS): > 100 µM
- TGI (SNB-19 CNS): > 100 µM
- GI50 (SNB-75 CNS): > 100 µM
- TGI (SNB-75 CNS): > 100 µM
- GI50 (SR leukemia): > 100 µM
- TGI (SR leukemia): > 100 µM
- GI50 (SW-620 colon): > 100 µM
- TGI (SW-620 colon): > 100 µM
- GI50 (TK-10 renal): > 66 µM
- TGI (TK-10 renal): > 100 µM
- GI50 (U251 glioblastoma): > 100 µM
- TGI (U251 glioblastoma): > 100 µM
- GI50 (UO-31 renal): 17.9 µM
- TGI (UO-31 renal): 34.3 µM

SMILES: COc1cc(C)[nH]c(=O)c1CN1CCc2c(Cl)cc([C@H](OC)C3COC3)c(Cl)c2C1=O
- GI50 (786-0 renal): > 100 µM
- TGI (786-0 renal): > 100 µM
- GI50 (A498 renal): > 100 µM
- TGI (A498 renal): > 100 µM
- GI50 (A549 NSCLC): > 100 µM
- TGI (A549 NSCLC): > 100 µM
- GI50 (BT-549 breast): > 100 µM
- TGI (BT-549 breast): > 100 µM
- GI50 (CAKI-1 renal): > 100 µM
- TGI (CAKI-1 renal): > 100 µM
- GI50 (CCRF-CEM leukemia): > 75.8 µM
- TGI (CCRF-CEM leukemia): > 100 µM
- GI50 (COLO 205 colon): > 100 µM
- TGI (COLO 205 colon): > 100 µM
- GI50 (DU-145 prostate): > 100 µM
- TGI (DU-145 prostate): > 100 µM
- GI50 (EKVX NSCLC): > 100 µM
- TGI (EKVX NSCLC): > 100 µM
- GI50 (HCC-2998 colon): > 100 µM
- TGI (HCC-2998 colon): > 100 µM
- GI50 (HL-60(TB) leukemia): > 78.5 µM
- TGI (HL-60(TB) leukemia): > 100 µM
- GI50 (HOP-92 NSCLC): > 100 µM
- TGI (HOP-92 NSCLC): > 100 µM
- GI50 (HS 578T breast): > 100 µM
- TGI (HS 578T breast): > 100 µM
- GI50 (HT29 colon): > 100 µM
- TGI (HT29 colon): > 100 µM
- GI50 (IGROV1 ovarian): > 100 µM
- TGI (IGROV1 ovarian): > 100 µM
- GI50 (LOX IMVI melanoma): > 100 µM
- TGI (LOX IMVI melanoma): > 100 µM
- GI50 (M14 melanoma): > 100 µM
- TGI (M14 melanoma): > 100 µM
- GI50 (MALME-3M melanoma): > 100 µM
- TGI (MALME-3M melanoma): > 100 µM
- GI50 (MCF7 breast): > 100 µM
- TGI (MCF7 breast): > 100 µM
- GI50 (MDA-MB-231 breast): > 78.3 µM
- TGI (MDA-MB-231 breast): > 100 µM
- GI50 (MDA-MB-435 melanoma): > 100 µM
- TGI (MDA-MB-435 melanoma): > 100 µM
- GI50 (MDA-MB-468 breast): > 100 µM
- TGI (MDA-MB-468 breast): > 100 µM
- GI50 (MOLT-4 leukemia): > 100 µM
- TGI (MOLT-4 leukemia): > 100 µM
- GI50 (NCI-H226 lung): > 100 µM
- TGI (NCI-H226 lung): > 100 µM
- GI50 (NCI-H23 lung): > 100 µM
- TGI (NCI-H23 lung): > 100 µM
- GI50 (NCI-H322M lung): > 100 µM
- TGI (NCI-H322M lung): > 100 µM
- GI50 (NCI-H522 lung): > 100 µM
- TGI (NCI-H522 lung): > 100 µM
- GI50 (OVCAR-3 ovarian): > 100 µM
- TGI (OVCAR-3 ovarian): > 100 µM
- GI50 (OVCAR-5 ovarian): > 100 µM
- TGI (OVCAR-5 ovarian): > 100 µM
- GI50 (PC-3 prostate): > 100 µM
- TGI (PC-3 prostate): > 100 µM
- GI50 (RPMI-8226 leukemia): 0.0849 µM
- GI50 (RXF 393 renal): > 100 µM
- TGI (RXF 393 renal): > 100 µM
- GI50 (SF-268 CNS): > 100 µM
- TGI (SF-268 CNS): > 100 µM
- GI50 (SF-295 CNS): > 100 µM
- TGI (SF-295 CNS): > 100 µM
- GI50 (SF-539 CNS): > 100 µM
- TGI (SF-539 CNS): > 100 µM
- GI50 (SK-MEL-2 melanoma): > 100 µM
- TGI (SK-MEL-2 melanoma): > 100 µM
- GI50 (SK-MEL-28 melanoma): > 100 µM
- TGI (SK-MEL-28 melanoma): > 100 µM
- GI50 (SK-MEL-5 melanoma): > 100 µM
- TGI (SK-MEL-5 melanoma): > 100 µM
- GI50 (SK-OV-3 ovarian): > 100 µM
- TGI (SK-OV-3 ovarian): > 100 µM
- GI50 (SN12C renal): > 100 µM
- TGI (SN12C renal): > 100 µM
- GI50 (SNB-19 CNS): > 100 µM
- TGI (SNB-19 CNS): > 100 µM
- GI50 (SNB-75 CNS): > 100 µM
- TGI (SNB-75 CNS): > 100 µM
- GI50 (SR leukemia): > 100 µM
- TGI (SR leukemia): > 100 µM
- GI50 (SW-620 colon): > 100 µM
- TGI (SW-620 colon): > 100 µM
- GI50 (TK-10 renal): > 100 µM
- TGI (TK-10 renal): > 100 µM
- GI50 (U251 glioblastoma): > 100 µM
- TGI (U251 glioblastoma): > 100 µM
- GI50 (UO-31 renal): > 100 µM
- TGI (UO-31 renal): > 100 µM
